Reference: PMC7574383 (Epigenetics, 2020)

Key:
[1] = tested on: Caco-2 cell monolayer; test: Caco-2 permeability assay; assay type: in vitro ADME, human; conditions: Caco-2 monolayer, compounds at 100 μg/ml, after three hours of treatment
[2] = tested on: HepG2 cells; test: Senescence-associated β-galactosidase assay, HepG2; assay type: cell-based, human; conditions: HepG2, DOXO 0.5 μM, 48 h
[3] = tested on: H9c2 cells; test: Senescence-associated β-galactosidase assay, H9c2; assay type: cell-based, rat; conditions: H9c2, DOXO 0.5 μM, 48 h

| SMILES | Permeability (%) [1] [%] | SA β-gal-positive cells induced [2] | SA β-gal-positive cells induced [3] [%] |
| --- | --- | --- | --- |
| CC(C)NCC(O)COc1cccc2ccccc12 (stereo not drawn) [Propranolol] | 82.4 | – | – |
| COc1cccc2c1C(=O)c1c(O)c3c(c(O)c1C2=O)C[C@@](O)(C(=O)CO)C[C@@H]3O[C@H]1C[C@H](N)[C@H](O)[C@H](C)O1 [DOXO, doxorubicin] | – | about 60% | ~35 |
